Measured values as given in patent US20160136286A1, “DRUG DELIVERY COMPOSITION” (The Queen's University of Belfast, priority 2008, published 2016).

Experiments:
[1] = irradiation of a solution of the conjugate with 365 nm UV-A radiation, followed by UV-visible spectra; assay type: physicochemical; settings: solution irradiated with 365 nm UV-A; judged from isosbestic points at 231 and 262 nm (FIG. 1)
From the text: The behaviour of 2-4 is characterised by irradiating a solution using 365 nm UV-A radiation. As the photochemical reaction proceeds, the UV-visible spectrum of the reaction mixture changes (FIG. 1), reflecting the formation of 1 and drug and the consumption of conjugate. […] The identity of reaction products was verified by chromatographic separation, followed by spectroscopic analysis to be solely the corresponding drug and 1. The reaction proceeded in an analogous fashion to related nondrug examples 12 and all three conjugates 2-4 behaved similarly.

[2] = solution in acetonitrile exposed to alternating periods of light and dark (365 nm), progress of drug liberation monitored; assay type: physicochemical; settings: six alternating periods (FIG. 2)
From the text: A solution of 2 in acetonitrile was then exposed to alternating periods of light and dark using the same conditions for light conditions as previously. […] The dose of liberated drug thus correlates with the duration of exposure to light. In this example, six periods of dosing and nondosing are alternated; this can be extended to any discrete dose required, in principle to the level of control provided from the light source, which includes molecule-scale control from low bursts of light deliverable from a laser source.

SMILES | side products of the photochemical reaction [1] | drug liberation reaction under light conditions ([2]; 365 nm light periods) | liberation of drug in dark conditions ([2]; dark periods)
COc1cc(OC)cc(C(OC(=O)C(C)c2ccc(CC(C)C)cc2)C(=O)c2ccccc2)c1 (stereo not drawn) [Compound 3] | no side products |  | 
COc1cc(OC)cc(C(OC(=O)c2ccccc2OC(C)=O)C(=O)c2ccccc2)c1 (stereo not drawn) [Compound 2] |  | proceeds | stopped completely
